One block for each compound: values may come before it.
Tests used:
mGluR5 = mGluR5 (Rattus norvegicus, UniProt P31424); assay: stimulation of phosphoinositide hydrolysis, cloned rat receptors; assay type: cell-based; conditions: 10 μM
[1] = compared with 7; cited from earlier work
mGluR1 = mGluR1 (Rattus norvegicus, UniProt P23385); assay: stimulation of phosphoinositide hydrolysis, cloned rat receptors; assay type: cell-based; conditions: 10 μM
NMDA = assay: NIMH PDSP binding screen; parameters: species or system human
GABAA = assay: NIMH PDSP binding screen; parameters: species or system human
human mGluR1 [2] = conditions: read-out: IC50 (affinity for mGluR1); human mGluR1, reported; cited from earlier work
rat BZP site = assay: NIMH PDSP binding screen
mGluR5 in monkey brain = mGluR5 in monkey brain (Macaca mulatta, UniProt A0ACM8QRY8); assay: PET challenge experiment with mGluR5-selective ligand in rhesus monkey; assay type: in vivo, rhesus monkey (Macaca mulatta); conditions: 5 mg/kg i.v. at 30 min after [^18F]11, third monkey
rat mGluR1 = conditions: VS = fP × Bmax/KD; cited from earlier work
human mGluR1 [3] = conditions: VS = fP × Bmax/KD; cited from earlier work
mGluR1 in monkey brain [4] = target: mGluR1 in monkey brain (Macaca mulatta, UniProt I2CU04); assay: PET preblock and challenge experiments with mGluR1 antagonist in rhesus monkey; assay type: in vivo, rhesus monkey (Macaca mulatta)
mGluR1 in monkey brain [5] = assay: PET baseline experiment in rhesus monkey, brain radioactivity uptake; assay type: in vivo, rhesus monkey (Macaca mulatta)

Sequence of mGluR1 in monkey brain (Macaca mulatta, UniProt I2CU04) (I2CU04 19-1195): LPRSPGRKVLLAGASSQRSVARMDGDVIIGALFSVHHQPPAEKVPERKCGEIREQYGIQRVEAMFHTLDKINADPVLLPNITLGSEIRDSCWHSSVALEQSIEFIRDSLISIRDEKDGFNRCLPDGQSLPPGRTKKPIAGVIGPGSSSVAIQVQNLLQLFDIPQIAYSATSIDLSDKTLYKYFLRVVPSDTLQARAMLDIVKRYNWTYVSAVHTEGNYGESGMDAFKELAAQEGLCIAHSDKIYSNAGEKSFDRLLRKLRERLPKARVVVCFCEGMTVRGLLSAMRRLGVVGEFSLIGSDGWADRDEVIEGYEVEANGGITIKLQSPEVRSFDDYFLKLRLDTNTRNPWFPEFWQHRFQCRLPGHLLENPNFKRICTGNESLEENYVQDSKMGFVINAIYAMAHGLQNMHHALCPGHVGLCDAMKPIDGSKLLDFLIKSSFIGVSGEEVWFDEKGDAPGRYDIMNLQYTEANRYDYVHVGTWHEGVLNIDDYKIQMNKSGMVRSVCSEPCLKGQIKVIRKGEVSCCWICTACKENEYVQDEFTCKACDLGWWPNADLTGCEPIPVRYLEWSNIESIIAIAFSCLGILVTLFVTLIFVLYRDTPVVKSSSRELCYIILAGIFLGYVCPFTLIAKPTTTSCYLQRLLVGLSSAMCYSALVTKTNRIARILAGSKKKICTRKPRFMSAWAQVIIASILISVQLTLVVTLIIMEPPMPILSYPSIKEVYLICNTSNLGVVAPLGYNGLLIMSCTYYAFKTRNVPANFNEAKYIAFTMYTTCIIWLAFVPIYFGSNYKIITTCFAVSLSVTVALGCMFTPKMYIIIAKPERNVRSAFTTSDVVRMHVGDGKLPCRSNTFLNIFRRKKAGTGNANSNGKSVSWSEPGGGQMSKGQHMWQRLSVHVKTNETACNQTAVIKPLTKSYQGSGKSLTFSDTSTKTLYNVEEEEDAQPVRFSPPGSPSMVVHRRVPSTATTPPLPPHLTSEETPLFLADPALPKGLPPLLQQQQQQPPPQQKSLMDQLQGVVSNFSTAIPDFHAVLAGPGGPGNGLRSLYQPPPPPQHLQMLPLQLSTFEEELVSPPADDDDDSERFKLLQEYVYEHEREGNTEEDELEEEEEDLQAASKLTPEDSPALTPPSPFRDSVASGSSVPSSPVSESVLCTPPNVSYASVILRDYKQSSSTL
Sequence of mGluR5 in monkey brain (A0ACM8QRY8 19-1212): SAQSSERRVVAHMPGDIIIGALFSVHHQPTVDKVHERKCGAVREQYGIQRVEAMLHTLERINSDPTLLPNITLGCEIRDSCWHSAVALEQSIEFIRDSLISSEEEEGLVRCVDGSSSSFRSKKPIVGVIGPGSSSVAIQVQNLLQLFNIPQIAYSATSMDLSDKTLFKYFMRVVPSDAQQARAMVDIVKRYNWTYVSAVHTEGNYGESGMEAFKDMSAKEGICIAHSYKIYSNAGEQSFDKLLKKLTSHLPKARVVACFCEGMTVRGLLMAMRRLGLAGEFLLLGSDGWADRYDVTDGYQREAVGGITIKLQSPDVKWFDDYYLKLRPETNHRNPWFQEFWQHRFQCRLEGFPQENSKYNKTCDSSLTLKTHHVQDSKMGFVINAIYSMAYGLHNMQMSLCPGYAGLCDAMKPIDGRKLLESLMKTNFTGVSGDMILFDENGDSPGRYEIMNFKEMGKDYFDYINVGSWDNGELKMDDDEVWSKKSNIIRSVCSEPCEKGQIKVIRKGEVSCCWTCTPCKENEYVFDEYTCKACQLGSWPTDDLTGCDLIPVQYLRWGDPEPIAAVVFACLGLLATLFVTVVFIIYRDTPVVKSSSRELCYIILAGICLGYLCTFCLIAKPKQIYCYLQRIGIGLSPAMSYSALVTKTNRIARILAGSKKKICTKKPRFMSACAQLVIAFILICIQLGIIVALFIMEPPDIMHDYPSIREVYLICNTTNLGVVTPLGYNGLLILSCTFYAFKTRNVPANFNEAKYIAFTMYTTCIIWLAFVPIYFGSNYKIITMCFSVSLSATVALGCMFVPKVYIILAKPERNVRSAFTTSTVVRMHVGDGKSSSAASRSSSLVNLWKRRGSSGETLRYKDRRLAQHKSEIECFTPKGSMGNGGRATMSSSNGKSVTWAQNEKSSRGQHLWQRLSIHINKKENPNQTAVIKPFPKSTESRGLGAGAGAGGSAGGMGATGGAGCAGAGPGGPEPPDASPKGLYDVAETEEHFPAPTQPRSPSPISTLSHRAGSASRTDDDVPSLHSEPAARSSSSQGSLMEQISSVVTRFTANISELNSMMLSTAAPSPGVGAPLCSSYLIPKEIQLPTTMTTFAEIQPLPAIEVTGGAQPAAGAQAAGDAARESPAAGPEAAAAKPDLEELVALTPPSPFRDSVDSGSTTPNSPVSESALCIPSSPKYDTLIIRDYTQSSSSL
Sequence of mGluR5 (P31424 21-1203): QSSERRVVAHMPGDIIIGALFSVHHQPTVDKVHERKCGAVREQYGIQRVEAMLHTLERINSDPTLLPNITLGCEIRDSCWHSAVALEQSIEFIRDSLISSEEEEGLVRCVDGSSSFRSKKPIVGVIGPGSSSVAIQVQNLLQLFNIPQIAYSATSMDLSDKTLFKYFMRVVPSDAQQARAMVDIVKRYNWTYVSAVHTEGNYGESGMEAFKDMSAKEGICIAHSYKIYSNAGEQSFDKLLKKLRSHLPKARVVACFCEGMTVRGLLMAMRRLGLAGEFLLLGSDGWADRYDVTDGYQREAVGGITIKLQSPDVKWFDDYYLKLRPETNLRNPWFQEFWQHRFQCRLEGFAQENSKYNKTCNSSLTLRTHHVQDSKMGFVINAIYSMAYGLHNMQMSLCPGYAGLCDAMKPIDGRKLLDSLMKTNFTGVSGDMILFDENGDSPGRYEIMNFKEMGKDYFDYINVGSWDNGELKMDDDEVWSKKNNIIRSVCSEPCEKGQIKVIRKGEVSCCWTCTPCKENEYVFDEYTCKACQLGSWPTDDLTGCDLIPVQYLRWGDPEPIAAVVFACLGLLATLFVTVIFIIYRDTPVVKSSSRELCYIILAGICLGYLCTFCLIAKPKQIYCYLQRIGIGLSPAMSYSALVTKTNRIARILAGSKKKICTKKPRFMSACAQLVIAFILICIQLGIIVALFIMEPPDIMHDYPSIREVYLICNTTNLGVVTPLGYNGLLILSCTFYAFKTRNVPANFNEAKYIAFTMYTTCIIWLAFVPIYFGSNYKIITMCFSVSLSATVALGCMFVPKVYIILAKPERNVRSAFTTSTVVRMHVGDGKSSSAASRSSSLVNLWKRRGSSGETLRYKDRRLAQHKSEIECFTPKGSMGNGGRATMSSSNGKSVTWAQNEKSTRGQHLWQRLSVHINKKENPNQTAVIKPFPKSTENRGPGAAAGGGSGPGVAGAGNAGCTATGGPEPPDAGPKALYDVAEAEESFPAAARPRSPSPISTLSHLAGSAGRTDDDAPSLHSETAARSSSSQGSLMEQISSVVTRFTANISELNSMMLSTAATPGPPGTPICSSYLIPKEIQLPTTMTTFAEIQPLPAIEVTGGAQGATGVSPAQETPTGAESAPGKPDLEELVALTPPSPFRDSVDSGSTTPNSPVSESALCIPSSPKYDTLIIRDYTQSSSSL
Sequence of mGluR1 (P23385 19-1199): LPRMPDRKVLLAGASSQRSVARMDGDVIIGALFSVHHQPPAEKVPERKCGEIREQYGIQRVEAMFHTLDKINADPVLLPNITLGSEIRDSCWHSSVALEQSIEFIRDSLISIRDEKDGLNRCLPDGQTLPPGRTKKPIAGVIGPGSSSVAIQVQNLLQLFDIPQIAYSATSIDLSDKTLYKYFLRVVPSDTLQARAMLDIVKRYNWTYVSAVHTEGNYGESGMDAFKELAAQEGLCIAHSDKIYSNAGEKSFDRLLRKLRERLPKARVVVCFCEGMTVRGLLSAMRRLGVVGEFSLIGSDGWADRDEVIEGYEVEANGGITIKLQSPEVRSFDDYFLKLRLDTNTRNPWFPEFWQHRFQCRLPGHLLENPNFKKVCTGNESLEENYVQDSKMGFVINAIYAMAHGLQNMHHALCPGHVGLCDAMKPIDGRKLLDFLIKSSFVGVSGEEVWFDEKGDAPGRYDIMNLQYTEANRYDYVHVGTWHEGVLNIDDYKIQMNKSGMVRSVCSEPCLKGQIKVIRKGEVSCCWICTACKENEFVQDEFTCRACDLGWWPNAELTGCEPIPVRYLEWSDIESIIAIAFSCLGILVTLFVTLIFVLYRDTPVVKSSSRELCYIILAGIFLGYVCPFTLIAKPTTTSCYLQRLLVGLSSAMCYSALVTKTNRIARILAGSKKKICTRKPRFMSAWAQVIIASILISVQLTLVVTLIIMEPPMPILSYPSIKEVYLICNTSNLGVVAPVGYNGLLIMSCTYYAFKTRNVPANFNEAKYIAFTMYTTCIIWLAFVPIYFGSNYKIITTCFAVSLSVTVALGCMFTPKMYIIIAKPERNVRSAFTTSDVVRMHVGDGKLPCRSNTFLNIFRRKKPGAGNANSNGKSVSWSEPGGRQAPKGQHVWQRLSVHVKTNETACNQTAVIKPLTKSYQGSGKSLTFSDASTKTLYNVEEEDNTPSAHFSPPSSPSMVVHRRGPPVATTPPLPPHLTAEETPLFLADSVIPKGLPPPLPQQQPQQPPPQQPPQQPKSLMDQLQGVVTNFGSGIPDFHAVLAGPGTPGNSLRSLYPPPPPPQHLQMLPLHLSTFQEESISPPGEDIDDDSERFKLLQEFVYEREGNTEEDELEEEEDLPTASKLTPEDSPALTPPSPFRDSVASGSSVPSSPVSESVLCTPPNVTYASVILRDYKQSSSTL

efficacy at mGluR5 (stimulation of phosphoinositide hydrolysis) (mGluR5): antagonist
efficacy at mGluR1 (stimulation of phosphoinositide hydrolysis) (mGluR1): antagonist
Ki (NMDA): > 10000 nM
Ki (GABAA): > 10000 nM
Ki (rat BZP site): > 10000 nM
SMILES: CNc1cc(-c2csc(N(C)C(=O)c3ccc(F)cc3)n2)ncn1 [compound 11, 4-Fluoro-N-methyl-N-(4-(6-(methylamino)pyrimidin-4-yl)thiazol-2-yl)benzamide]
extent of metabolism in human liver microsomes [1]: metabolized more extensively than 7
IC50 (human mGluR1 [2]): 1.8 nM

SMILES: Cc1nc(C#Cc2cccnc2)cs1 [compound 18, 3-((2-methyl-4-thiazolyl)ethynyl)pyridine]
effect on [^18F]11 brain washout kinetics after challenge (mGluR5 in monkey brain): no change in the washout kinetics from any brain region

SMILES: Cc1c(-c2ccc(O[11CH3])cc2)nsc1NC(=O)[C@@H]1C[C@H]1C [[^11C]6]
effective binding potential (VS) (rat mGluR1): 0.683
effective binding potential (VS) (human mGluR1 [3]): 0.0161

distribution of [^18F]11 radioactivity across brain after preblock (mGluR1 in monkey brain [4]; 3 mg/kg i.v. at 5 min before [^18F]11): low and uniform
SMILES: CO[C@H]1CC[C@@H](C(=O)c2ccc3nc4c(cc3c2)CCCO4)CC1 [compound 17]
effect on [^18F]11 brain radioactivity after challenge (mGluR1 in monkey brain [4]; 3 mg/kg i.v. at 30 min after [^18F]11, second monkey): rapid decrease in radioactivity at all mGluR1-containing regions

SMILES: CC(C)Nc1cc(-c2csc(N(C)C(=O)c3ccc(F)cc3)n2)ncn1 [[^18F]7, reference compound]
IC50 (human mGluR1 [2]): 5.1 nM

radiodefluorination (radioactivity uptake in skull) (mGluR1 in monkey brain [5]; all PET experiments in monkey): negligible
SMILES: CNc1cc(-c2csc(N(C)C(=O)c3ccc([18F])cc3)n2)ncn1 [[^18F]11, [^18F]4-Fluoro-N-methyl-N-(4-(6-(methylamino)pyrimidin-4-yl)thiazol-2-yl)benzamide]
decrease of cerebellum radioactivity from peak (mGluR1 in monkey brain [5]; baseline, at end of 2-h scan (120 min)): 47%
